Assay results published in article PMC7294525 (Cell Research, 2020).
Read-outs that look alike come from different tables or passages of the source. Peptide text beside a SMILES is read from it. * marks the point of attachment. Cbz = O=C(OCc1ccccc1)*

Columns and labels:
[1] = target: SARS-CoV-2 main protease (M^pro) (Severe acute respiratory syndrome coronavirus 2, UniProt P0DTD1); experiment: biochemical; details: for inhibition at 20 µM: read-out: inhibition against M^pro
[2] = target: EV-A71 3C protease (Human enterovirus 71, UniProt Q66478); experiment: biochemical
[3] = target: T1, EV-A71 2A protease (Human enterovirus 71, UniProt Q66478); experiment: biochemical
T1 sequence (Q66478 863-1012 limits assumed): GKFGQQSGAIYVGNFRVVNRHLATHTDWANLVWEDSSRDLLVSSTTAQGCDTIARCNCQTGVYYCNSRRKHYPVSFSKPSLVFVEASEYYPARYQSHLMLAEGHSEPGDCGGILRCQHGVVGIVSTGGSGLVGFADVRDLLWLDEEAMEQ

[4] = tested on: influenza virus A/California/07/2009 (H1N1); experiment: Influenza A virus plaque reduction assay; assay type: cell-based; details: read-out: A/California/07/2009 (H1N1) antiviral activity (EC50)
[5] = target: SARS-CoV-2 M^pro (Severe acute respiratory syndrome coronavirus 2, UniProt P0DTD1); assay type: binding
[6] = tested on: SARS-CoV 3CL^pro (M^pro); details: read-out: IC50 against SARS-CoV 3CL^pro (M^pro); cited from earlier work
[7] = 8 µM protein, 4 mM DTT, ligand 12.5 µM (62: 25 µM), up to two ligands per dimer

EV-A71 3C protease, sequence (Q66478 1549-1731): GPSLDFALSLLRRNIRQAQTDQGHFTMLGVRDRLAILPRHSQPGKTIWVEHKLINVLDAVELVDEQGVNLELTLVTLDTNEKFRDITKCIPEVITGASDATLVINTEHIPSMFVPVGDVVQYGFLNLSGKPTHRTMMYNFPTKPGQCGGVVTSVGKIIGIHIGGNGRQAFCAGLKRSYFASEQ

## Cc1cccc(C)c1OCC(=O)N[C@@H](Cc1ccccc1)[C@@H](O)C[C@H](Cc1ccccc1)NC(=O)[C@H](C(C)C)N1CCCNC1=O [compound 10, lopinavir]
[1]
  IC50: > 20 µM

## COc1ccc2c(O[C@@H]3C[C@H]4C(=O)N[C@]5(C(=O)NS(=O)(=O)C6CC6)C[C@H]5/C=C\CCCCN(C)C(=O)[C@@H]4C3)cc(-c3nc(C(C)C)cs3)nc2c1C [compound 24, simeprevir]
[1]
  inhibition at 20 µM: > 60%

## CC(C)(C)NC(=O)N[C@H](C(=O)N1C[C@H]2[C@@H]([C@H]1C(=O)NC(CC1CCC1)C(=O)C(N)=O)C2(C)C)C(C)(C)C (stereo partly shown) [compound 28, boceprevir]
[2]
  IC50: > 20 µM
[3]
  IC50: > 20 µM
[4]
  EC50: > 20 µM
[1]
  inhibition at 20 µM: > 60%
[5]
  binding stoichiometry by native MS: one drug per protomer

## CCCC[C@H](NC(=O)[C@@H]1[C@@H]2[C@H](CN1C(=O)[C@@H](NC(=O)NC1(CS(=O)(=O)C(C)(C)C)CCCCC1)C(C)(C)C)C2(C)C)C(=O)C(=O)NC1CC1 [compound 29, narlaprevir]
[2]
  IC50: > 20 µM
[3]
  IC50: > 20 µM
[1]
  inhibition at 20 µM: > 60%

## CN(C)C(=O)COC(=O)Cc1ccc(OC(=O)c2ccc(NC(=N)N)cc2)cc1 [compound 39, camostat]
[1]
  IC50: > 20 µM

## CC(C)C[C@@H](C=O)NC(=O)[C@H](CC(C)C)NC(=O)[C@H](CC(C)C)NC(=O)OCc1ccccc1 [compound 43, MG-132] (Cbz-Leu-Leu-Leu-aldehyde)
[2]
  IC50: > 20 µM
[3]
  IC50: > 20 µM
[1]
  inhibition at 20 µM: > 60%

## CC(C)[C@H](NC(=O)OCc1ccccc1)C(=O)N[C@H](C=O)Cc1ccccc1 [compound 57, calpain inhibitor III] (Cbz-Val-Phe-aldehyde)
[1]
  IC50: > 20 µM

## CCOC(=O)/C=C/[C@H](C[C@@H]1CCNC1=O)NC(=O)[C@@H](CC(=O)[C@@H](NC(=O)c1cc(C)on1)C(C)C)Cc1ccc(F)cc1 [compound 65, rupintrivir]
[2]
  activity against EV-A71 3C protease: potent inhibition
[3]
  activity against EV-A71 2A protease: inactive
[6]
  IC50: > 100 µM

## GC-376 [compound 64]
[2]
  activity against EV-A71 3C protease: potent inhibition
[3]
  activity against EV-A71 2A protease: inactive
[4]; plaque assay
  EC50: > 20 µM

## calpain inhibitor II [compound 61]
[4]; plaque assay
  EC50: > 20 µM
[5]; [7]
  binding stoichiometry by native MS: one drug per protomer

## calpain inhibitor XII [compound 62]
[4]; plaque assay
  EC50: > 20 µM
[5]; [7]
  binding stoichiometry by native MS: one drug per protomer
